12 molecules from ChEMBL document CHEMBL1201862, “PubChem BioAssay data set” (2004) can be followed below.

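96-well plates; 48 h exposure; 5 concentrations. Endpoints by linear interpolation between flanking doses. Not reached: highest tested concentration assigned. Abbreviation: GI50, concentration required for 50% inhibition of growth.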 Activity calls are given as the source filed them. No stated cut-off is given here; in the data, active = GI50 up to about 1.1 µM and inactive = higher.

Some test systems named below: NCI-H226; K562; SW-620; SF-539; MOLT-4; HCT-116; CAKI-1; RPMI-8226; IGROV-1; OVCAR-3; TK-10; Malme-3M; SNB-19; KM12; UACC-257; HOP-92; CCRF-CEM; 786-0; SK-OV-3.
Holding throughout (experiment): NCI-60 cell line screen, 48 h

Turning to `CCOC(=O)[C@H]1Nc2c(cccc2[N+](=O)[O-])C2c3ccccc3CC21` (stereo partly drawn), the GI50 in the assay with NCI-H226, in the assay on K562, in the assay on SW-620, in the assay on SF-539, in the assay on MOLT-4 and with HCT-116 was > 100 µM (inactive) each time. Moreover, the GI50 in the assay on CAKI-1 is > 100 µM (inactive); with RPMI-8226, > 100 µM (inactive); in the assay on IGROV-1, > 100 µM (inactive); with OVCAR-3, 40.8 µM (inactive); in the assay on TK-10, > 100 µM (inactive); in the assay with Malme-3M, > 100 µM (inactive). Moreover, the GI50 in the assay with SNB-19 was > 100 µM (inactive); with KM12 it was > 100 µM (inactive); in the assay with UACC-257 it was 27.7 µM (inactive).

As to `CCCCCC/C(CC(=O)CCC(=O)NCCc1ccccc1)=N\NC(=O)c1ccc2ccccc2c1O`, the GI50 is 55 µM (inactive) in the assay on NCI-H226; 52.7 µM (inactive) in the assay on SW-620; 33 µM (inactive) in the assay with HOP-92; 11.5 µM (inactive) in the assay with MOLT-4; 10.3 µM (inactive) with CCRF-CEM; 29.9 µM (inactive) with HCT-116. Moreover, the GI50 is 46 µM (inactive) with RPMI-8226; 33.7 µM (inactive) in the assay with IGROV-1; 28.8 µM (inactive) with OVCAR-3; 64.7 µM (inactive) with TK-10; 42.4 µM (inactive) in the assay on Malme-3M; 59.8 µM (inactive) in the assay with SNB-19. In addition, the GI50 in the assay on 786-0 was 31.6 µM (inactive); in the assay on KM12, 35.1 µM (inactive); in the assay with UACC-257 it was 30.1 µM (inactive).

As to `C#Cc1c(C)c(/C=C/C(C)=C\C(=O)OC)n(C)c1C`, the GI50 in the assay with NCI-H226 was > 100 µM (inactive); with K562, 8.97 µM (inactive); with SW-620, > 100 µM (inactive); in the assay with HOP-92, > 100 µM (inactive); in the assay on SF-539, 67.5 µM (inactive); in the assay on MOLT-4, 7.06 µM (inactive). Further, the GI50 was 33.8 µM (inactive) with CCRF-CEM; > 100 µM (inactive) in the assay with CAKI-1; 18.8 µM (inactive) in the assay with RPMI-8226; > 100 µM (inactive) in the assay with IGROV-1; 96.2 µM (inactive) in the assay on OVCAR-3; > 100 µM (inactive) in the assay with TK-10. In addition, the GI50 was > 100 µM (inactive) with Malme-3M; > 100 µM (inactive) in the assay with SNB-19; > 100 µM (inactive) with SK-OV-3; 55.1 µM (inactive) with 786-0; 99.1 µM (inactive) with KM12; > 100 µM (inactive) in the assay on UACC-257.

Consider `COc1ccc(-n2cnn3c(=O)c4cn[nH]c4nc23)cc1`, for which the GI50 in the assay with NCI-H226 was > 10 µM (inactive); in the assay on K562, > 10 µM (inactive); in the assay with HOP-92 it was 0.748 µM (active); in the assay on SF-539, > 10 µM (inactive); in the assay with MOLT-4, > 10 µM (inactive); with CCRF-CEM, > 10 µM (inactive). Further, the GI50 in the assay on HCT-116 is > 10 µM (inactive); with OVCAR-3 it was > 10 µM (inactive); in the assay with TK-10, > 10 µM (inactive); with Malme-3M it was > 10 µM (inactive); in the assay on SNB-19 it was > 10 µM (inactive); with SK-OV-3, 1.49 µM (inactive). The GI50 with 786-0, in the assay on KM12 and with UACC-257 was > 10 µM (inactive) in each case.

As to `Nc1nc(SCCC/C=C/I)nc2c1ncn2C1OC(CO)C(O)C1O` (stereo not drawn), the GI50 in the assay with NCI-H226 was > 202 µM (inactive); in the assay on K562, > 202 µM (inactive); in the assay with SW-620, > 202 µM (inactive); with HOP-92 it was > 202 µM (inactive); with SF-539, > 202 µM (inactive); with MOLT-4 it was 99.5 µM (inactive). Moreover, the GI50 with CCRF-CEM was 98.4 µM (inactive); in the assay on HCT-116 it was > 202 µM (inactive); with CAKI-1, > 202 µM (inactive); in the assay with RPMI-8226 it was > 202 µM (inactive); with IGROV-1, > 202 µM (inactive); in the assay on OVCAR-3, > 202 µM (inactive). Also, the GI50 in the assay on TK-10, in the assay with Malme-3M, with SNB-19, with SK-OV-3, with 786-0 and in the assay on KM12 was > 202 µM (inactive) in each case. For the same molecule, the GI50 with UACC-257 was > 202 µM (inactive).

On to `COC(=O)c1sc(=NC(=S)N2CCCCC2)sc1C(=O)OC`, for which the GI50 in the assay on NCI-H226 was > 100 µM (inactive); in the assay with K562 it was 71.6 µM (inactive); in the assay with SW-620, > 100 µM (inactive); in the assay with SF-539 it was > 100 µM (inactive); in the assay on MOLT-4, > 100 µM (inactive); in the assay on CCRF-CEM it was 32.7 µM (inactive). Also, the GI50 in the assay on HCT-116 is > 100 µM (inactive); with CAKI-1, > 100 µM (inactive); in the assay with RPMI-8226, > 100 µM (inactive); with IGROV-1 it was > 100 µM (inactive); in the assay on OVCAR-3, 3.01 µM (inactive); in the assay with TK-10, > 100 µM (inactive). For the same molecule, the GI50 in the assay on Malme-3M is > 100 µM (inactive); with SNB-19, > 100 µM (inactive); in the assay on SK-OV-3, > 100 µM (inactive); in the assay on 786-0, > 100 µM (inactive); in the assay with KM12, 91.4 µM (inactive); with UACC-257 it was > 100 µM (inactive).

As to `[N-]=[N+]=CC(=O)c1ccccc1C#CCCc1ccccc1`, the GI50 with NCI-H226 was 29.4 µM (inactive); with K562, 27.5 µM (inactive); in the assay with SW-620 it was 32.7 µM (inactive); with HOP-92 it was 18.9 µM (inactive); in the assay with SF-539 it was 36.6 µM (inactive); in the assay with MOLT-4, 12.1 µM (inactive). Also, the GI50 is 10.9 µM (inactive) with CCRF-CEM; 16.6 µM (inactive) in the assay with HCT-116; 14 µM (inactive) in the assay on RPMI-8226; 36.9 µM (inactive) with IGROV-1; 20.2 µM (inactive) in the assay on OVCAR-3; 72.8 µM (inactive) with TK-10. The GI50 in the assay on Malme-3M was 27.4 µM (inactive); in the assay with SNB-19 it was 38.3 µM (inactive); in the assay on SK-OV-3, 15.1 µM (inactive); in the assay with KM12 it was 41.2 µM (inactive); with UACC-257, 23.9 µM (inactive).

In the case of `O=C(CCC(=O)Nc1ccccc1C(F)(F)F)N/N=C1\C(=N\NC(=O)CCC(=O)Nc2ccccc2C(F)(F)F)C(c2ccc3c(c2)OCO3)Oc2ccccc21` (stereo not drawn), the GI50 is 10.6 µM (inactive) in the assay on NCI-H226; 3.54 µM (inactive) with K562; 6.22 µM (inactive) in the assay with SW-620; 17.9 µM (inactive) in the assay with HOP-92; 12 µM (inactive) with SF-539; 3.01 µM (inactive) with MOLT-4. The GI50 in the assay on CCRF-CEM was 4.26 µM (inactive); with HCT-116 it was 5.9 µM (inactive); with CAKI-1, 10.1 µM (inactive); in the assay on RPMI-8226 it was 4.44 µM (inactive); in the assay with IGROV-1, 16.9 µM (inactive); in the assay on OVCAR-3 it was 3.43 µM (inactive). Further, the GI50 was > 64.7 µM (inactive) with TK-10; > 100 µM (inactive) in the assay on Malme-3M; 13.2 µM (inactive) in the assay with SNB-19; 20.7 µM (inactive) with SK-OV-3; 8.63 µM (inactive) in the assay on 786-0; 26.2 µM (inactive) in the assay with KM12. Moreover, the GI50 in the assay with UACC-257 is > 100 µM (inactive).

Take `Nc1nc(Cl)cc(NCCCCCCCCCCCCNc2cc(Cl)nc(N)n2)n1`: the GI50 is 15 µM (inactive) in the assay with NCI-H226; 0.0655 µM (active) with K562; 28.8 µM (inactive) in the assay with SW-620; 2.87 µM (inactive) in the assay on HOP-92; 15.2 µM (inactive) in the assay on SF-539; 1.33 µM (inactive) with MOLT-4. Further, the GI50 in the assay with CCRF-CEM was 1.69 µM (inactive); in the assay on HCT-116, 0.832 µM (active); with RPMI-8226 it was > 100 µM (inactive); with IGROV-1 it was 15.8 µM (inactive); with OVCAR-3, 11.1 µM (inactive); with TK-10, 23.6 µM (inactive). Moreover, the GI50 in the assay on Malme-3M was 24.4 µM (inactive); in the assay on SK-OV-3 it was 32.4 µM (inactive); in the assay with KM12, 83 µM (inactive); with UACC-257 it was 0.515 µM (active).

With `CC1(C)CCc2cc3c(cc2O1)OC(C)(C)CC3=O`, the GI50 in the assay with NCI-H226 was 34.2 µM (inactive); in the assay with K562, 44.6 µM (inactive); with SW-620, > 100 µM (inactive); with HOP-92, 17.5 µM (inactive); in the assay on SF-539, > 100 µM (inactive); in the assay with MOLT-4 it was 46.8 µM (inactive). Moreover, the GI50 in the assay on CCRF-CEM is 76.6 µM (inactive); with HCT-116, 71.1 µM (inactive); in the assay with CAKI-1, 52.5 µM (inactive); with RPMI-8226, > 100 µM (inactive); in the assay with IGROV-1, > 100 µM (inactive); in the assay with OVCAR-3, 27.5 µM (inactive). The GI50 in the assay on SK-OV-3 and with KM12 was > 100 µM (inactive) throughout.

For the molecule `CCCCCC1CC(C(C)=O)CN1c1ccc(F)cc1` (stereo not drawn), the GI50 in the assay with SW-620 is 29.7 µM (inactive); with HOP-92, 27.9 µM (inactive); with SF-539, > 100 µM (inactive); in the assay with HCT-116, 27.1 µM (inactive); in the assay on OVCAR-3 it was 28.1 µM (inactive); in the assay with TK-10, 98.6 µM (inactive). The GI50 with Malme-3M is 54.7 µM (inactive); in the assay with SNB-19 it was > 10 µM (inactive); in the assay on KM12, 35.6 µM (inactive); in the assay on UACC-257, 30.5 µM (inactive).

Consider `CS(=O)(=O)OCC1=C(COS(C)(=O)=O)C(=O)c2c(O)ccc(O)c2C1=O`, for which the GI50 in the assay with NCI-H226, in the assay with K562, in the assay with SW-620, with HOP-92, with SF-539 and in the assay with MOLT-4 was > 100 µM (inactive) throughout. The GI50 with CCRF-CEM, in the assay on HCT-116, in the assay on CAKI-1, in the assay on RPMI-8226, in the assay on IGROV-1 and with OVCAR-3 was > 100 µM (inactive) throughout. Also, the GI50 in the assay on TK-10, with Malme-3M, with SK-OV-3, with KM12 and in the assay with UACC-257 was > 100 µM (inactive) throughout.
